Data: the supplement of paper PMC11451515

Key:
Details in all cases: 48 h
SEM cells [1] = experiment: AUC of viability dose-response curve (% viability x log10 dose units); higher = less sensitive
In short: (§1)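 Leukemia cells adapted to each medium were seeded in 1536-well plates (500 or 1000 cells/well). They were dosed with library compounds in DMSO at 11 threefold doses, 47 μM to 0.79 nM, for 48 h at 37°C. CellTiter-Glo One luminescence was normalised per plate to DMSO and cell-free wells. Area under the curve was integrated by trapezoidal rule over log10 doses on a four-parameter log-logistic fit; curves exceeding full viability were scaled and curves failing quality control removed.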

NOMO1 [2] = experiment: as above
In short: as §1

P12-Ichikawa [3] = experiment: as above
In short: as §1

SEM cells [4] = experiment: cell viability relative to DMSO control; higher = less cytotoxic
In short: (§2)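 Library compounds in DMSO were pin-dosed into 1536-well plates (5 μl) holding NOMO1 or SEM (500 cells/well) or P12-Ichikawa (1000 cells/well) leukemia cells, across an 11-point threefold series of 47 μM to 0.79 nM. Each cell line had been adapted for at least four passages in each medium. CellTiter-Glo One luminescence was read after 48 h at 37°C. Viability is the per-plate percentage relative to DMSO wells, with cell-free wells as background.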

NOMO1 [5] = experiment: as above
In short: as §2

P12-Ichikawa [6] = experiment: as above
In short: as §2

[7] = RPMI 5 mM glucose + 10% dialyzed FBS
[8] = HPLM + 10% dialyzed FBS, 0.000781 µM
[9] = HPLM + 10% dialyzed FBS, 0.00234 µM
[10] = HPLM + 10% dialyzed FBS, 0.00702 µM
[11] = HPLM + 10% dialyzed FBS, 0.0211 µM
[12] = HPLM + 10% dialyzed FBS, 0.0632 µM
[13] = HPLM + 10% dialyzed FBS, 0.19 µM
[14] = HPLM + 10% dialyzed FBS, 0.569 µM
[15] = HPLM + 10% dialyzed FBS, 1.71 µM
[16] = HPLM + 10% dialyzed FBS, 5.12 µM
[17] = HPLM + 10% dialyzed FBS, 15.4 µM
[18] = HPLM + 10% dialyzed FBS, 46.1 µM
[19] = RPMI 5 mM glucose + 10% FBS, 0.000781 µM
[20] = RPMI 5 mM glucose + 10% FBS, 0.00234 µM
[21] = RPMI 5 mM glucose + 10% FBS, 0.00702 µM
[22] = RPMI 5 mM glucose + 10% FBS, 0.0211 µM
[23] = RPMI 5 mM glucose + 10% FBS, 0.0632 µM
[24] = RPMI 5 mM glucose + 10% FBS, 0.19 µM
[25] = RPMI 5 mM glucose + 10% FBS, 0.569 µM
[26] = RPMI 5 mM glucose + 10% FBS, 1.71 µM
[27] = RPMI 5 mM glucose + 10% FBS, 5.12 µM
[28] = RPMI 5 mM glucose + 10% FBS, 15.4 µM
[29] = RPMI 5 mM glucose + 10% FBS, 46.1 µM
[30] = RPMI 5 mM glucose + 10% dialyzed FBS, 0.000781 µM
[31] = RPMI 5 mM glucose + 10% dialyzed FBS, 0.00234 µM
[32] = RPMI 5 mM glucose + 10% dialyzed FBS, 0.00702 µM
[33] = RPMI 5 mM glucose + 10% dialyzed FBS, 0.0211 µM
[34] = RPMI 5 mM glucose + 10% dialyzed FBS, 0.0632 µM
[35] = RPMI 5 mM glucose + 10% dialyzed FBS, 0.19 µM
[36] = RPMI 5 mM glucose + 10% dialyzed FBS, 0.569 µM
[37] = RPMI 5 mM glucose + 10% dialyzed FBS, 1.71 µM
[38] = RPMI 5 mM glucose + 10% dialyzed FBS, 5.12 µM
[39] = RPMI 5 mM glucose + 10% dialyzed FBS, 15.4 µM
[40] = RPMI 5 mM glucose + 10% dialyzed FBS, 46.1 µM

## OC(=O)C/1=C/C(=O)NC(=O)N1
SEM cells [1]; HPLM + 10% dialyzed FBS
  AUC of viability dose-response curve: 466
SEM cells [1]; RPMI 5 mM glucose + 10% FBS
  AUC of viability dose-response curve: 457
SEM cells [1]; [7]
  AUC of viability dose-response curve: 458
NOMO1 [2]; HPLM + 10% dialyzed FBS
  AUC of viability dose-response curve: 424
NOMO1 [2]; RPMI 5 mM glucose + 10% FBS
  AUC of viability dose-response curve: 450
NOMO1 [2]; [7]
  AUC of viability dose-response curve: 437
P12-Ichikawa [3]; HPLM + 10% dialyzed FBS
  AUC of viability dose-response curve: 455
P12-Ichikawa [3]; RPMI 5 mM glucose + 10% FBS
  AUC of viability dose-response curve: 457
P12-Ichikawa [3]; [7]
  AUC of viability dose-response curve: 456

## NC\1=N\C(=O)N(\C=C1)[C@@H]2O[C@H](CO)[C@@H](O)[C@@H]2O
NOMO1 [2]; HPLM + 10% dialyzed FBS
  AUC of viability dose-response curve: 186
NOMO1 [2]; RPMI 5 mM glucose + 10% FBS
  AUC of viability dose-response curve: 201
NOMO1 [2]; [7]
  AUC of viability dose-response curve: 154
P12-Ichikawa [3]; HPLM + 10% dialyzed FBS
  AUC of viability dose-response curve: 38
P12-Ichikawa [3]; RPMI 5 mM glucose + 10% FBS
  AUC of viability dose-response curve: 25.6
P12-Ichikawa [3]; [7]
  AUC of viability dose-response curve: 39.2
SEM cells [4]; [8]
  cell viability: 23.7%
SEM cells [4]; [9]
  cell viability: 26.1%
SEM cells [4]; [10]
  cell viability: 17.2%
SEM cells [4]; [11]
  cell viability: 15.7%
SEM cells [4]; [12]
  cell viability: 13.3%
SEM cells [4]; [13]
  cell viability: 11%
SEM cells [4]; [14]
  cell viability: 10.9%
SEM cells [4]; [15]
  cell viability: 8.22%
SEM cells [4]; [16]
  cell viability: 7.91%
SEM cells [4]; [17]
  cell viability: 7.2%
SEM cells [4]; [18]
  cell viability: 3.82%
SEM cells [4]; [19]
  cell viability: 37.4%
SEM cells [4]; [20]
  cell viability: 37.7%
SEM cells [4]; [21]
  cell viability: 23.5%
SEM cells [4]; [22]
  cell viability: 21.1%
SEM cells [4]; [23]
  cell viability: 11.4%
SEM cells [4]; [24]
  cell viability: 12.1%
SEM cells [4]; [25]
  cell viability: 10.4%
SEM cells [4]; [26]
  cell viability: 8.65%
SEM cells [4]; [27]
  cell viability: 7.25%
SEM cells [4]; [28]
  cell viability: 6.17%
SEM cells [4]; [29]
  cell viability: 1.99%
SEM cells [4]; [30]
  cell viability: 16.3%
SEM cells [4]; [31]
  cell viability: 15.2%
SEM cells [4]; [32]
  cell viability: 14.2%
SEM cells [4]; [33]
  cell viability: 8.59%
SEM cells [4]; [34]
  cell viability: 7.4%
SEM cells [4]; [35]
  cell viability: 7.91%
SEM cells [4]; [36]
  cell viability: 6.93%
SEM cells [4]; [37]
  cell viability: 4.74%
SEM cells [4]; [38]
  cell viability: 3.6%
SEM cells [4]; [39]
  cell viability: 3.65%
SEM cells [4]; [40]
  cell viability: 1.52%
NOMO1 [5]; [8]
  cell viability: 76.3%
NOMO1 [5]; [9]
  cell viability: 79.8%
NOMO1 [5]; [10]
  cell viability: 47.7%
NOMO1 [5]; [11]
  cell viability: 62.9%
NOMO1 [5]; [12]
  cell viability: 33.9%
NOMO1 [5]; [13]
  cell viability: 30.6%
NOMO1 [5]; [14]
  cell viability: 31.5%
NOMO1 [5]; [15]
  cell viability: 25.8%
NOMO1 [5]; [16]
  cell viability: 20.3%
NOMO1 [5]; [17]
  cell viability: 20%
NOMO1 [5]; [18]
  cell viability: 6.26%
NOMO1 [5]; [19]
  cell viability: 76%
NOMO1 [5]; [20]
  cell viability: 83.3%
NOMO1 [5]; [21]
  cell viability: 83.1%
NOMO1 [5]; [22]
  cell viability: 74.8%
NOMO1 [5]; [23]
  cell viability: 54.1%
NOMO1 [5]; [24]
  cell viability: 24.4%
NOMO1 [5]; [25]
  cell viability: 25.1%
NOMO1 [5]; [26]
  cell viability: 21.3%
NOMO1 [5]; [27]
  cell viability: 14.6%
NOMO1 [5]; [28]
  cell viability: 8.18%
NOMO1 [5]; [29]
  cell viability: 3.59%
NOMO1 [5]; [30]
  cell viability: 66.8%
NOMO1 [5]; [31]
  cell viability: 68.6%
NOMO1 [5]; [32]
  cell viability: 53.4%
NOMO1 [5]; [33]
  cell viability: 49.9%
NOMO1 [5]; [34]
  cell viability: 29.8%
NOMO1 [5]; [35]
  cell viability: 18.3%
NOMO1 [5]; [36]
  cell viability: 25.8%
NOMO1 [5]; [37]
  cell viability: 14.7%
NOMO1 [5]; [38]
  cell viability: 16.6%
NOMO1 [5]; [39]
  cell viability: 12.6%
NOMO1 [5]; [40]
  cell viability: 7.75%
P12-Ichikawa [6]; [8]
  cell viability: 26.1%
P12-Ichikawa [6]; [9]
  cell viability: 22.9%
P12-Ichikawa [6]; [10]
  cell viability: 9.22%
P12-Ichikawa [6]; [11]
  cell viability: 8.83%
P12-Ichikawa [6]; [12]
  cell viability: 4.99%
P12-Ichikawa [6]; [13]
  cell viability: 6.11%
P12-Ichikawa [6]; [14]
  cell viability: 6.14%
P12-Ichikawa [6]; [15]
  cell viability: 4.49%
P12-Ichikawa [6]; [16]
  cell viability: 3.27%
P12-Ichikawa [6]; [17]
  cell viability: 2.43%
P12-Ichikawa [6]; [18]
  cell viability: 0.778%
P12-Ichikawa [6]; [19]
  cell viability: 14.9%
P12-Ichikawa [6]; [20]
  cell viability: 15.4%
P12-Ichikawa [6]; [21]
  cell viability: 9.94%
P12-Ichikawa [6]; [22]
  cell viability: 5.41%
P12-Ichikawa [6]; [23]
  cell viability: 3.93%
P12-Ichikawa [6]; [24]
  cell viability: 3.94%
P12-Ichikawa [6]; [25]
  cell viability: 3.63%
P12-Ichikawa [6]; [26]
  cell viability: 2.08%
P12-Ichikawa [6]; [27]
  cell viability: 1.73%
P12-Ichikawa [6]; [28]
  cell viability: 1.04%
P12-Ichikawa [6]; [29]
  cell viability: 0.402%
P12-Ichikawa [6]; [30]
  cell viability: 20%
P12-Ichikawa [6]; [31]
  cell viability: 16.6%
P12-Ichikawa [6]; [32]
  cell viability: 11.1%
P12-Ichikawa [6]; [33]
  cell viability: 10.5%
P12-Ichikawa [6]; [34]
  cell viability: 7.45%
P12-Ichikawa [6]; [35]
  cell viability: 6.15%
P12-Ichikawa [6]; [36]
  cell viability: 7.46%
P12-Ichikawa [6]; [37]
  cell viability: 5.67%
P12-Ichikawa [6]; [38]
  cell viability: 3.34%
P12-Ichikawa [6]; [39]
  cell viability: 3.72%
P12-Ichikawa [6]; [40]
  cell viability: 1.87%
